Legend:
[1] = test system: PR cellular signaling pathway; test: PR pathway activity inferred by Bayesian network models, ishikawa IKPR-AB36 endometrium cell line (GSE29435); format: cell-based; conditions: PR-A, PR-B and PR-A&B models; 1 nM, 48h; versus control treated samples
Text: (§1) Herein, an exemplary Bayesian network model as shown in FIG. 1 was used to model the transcriptional program of the PR cellular signaling pathway in a simple manner. The model consists of three types of nodes: (a) a transcription factor (TF) element (with states “absent” and “present”) in a first layer 1; (b) target genes TG1, TG2, TGn (with states “down” and “up”) in a second layer 2, and; (c) measurement nodes linked to the expression levels of the target genes in a third layer 3. These can be microarray probesets PS1,1, PS1,2, PS1,3, PS2,1, PSn,1, PSn,m (with states “low” and “high”), as preferably used herein, but could also be other gene expression measurements such as RNAseq or RT-qPCR.
(§2) Once the exemplary Bayesian network model is built and calibrated (see below), the model can be used on microarray data of a new sample by entering the probeset measurements as observations in the third layer 3, and inferring backwards in the model what the probability must have been for the TF element to be “present”. Here, “present” is considered to be the phenomenon that the TF element is bound to the DNA and is controlling transcription of the cellular signaling pathway's target genes, and “absent” the case that the TF element is not controlling transcription.
(§3) The models are identified by their target gene list and calibration set. […]

[2] = test system: PR cellular signaling pathway; test: PR pathway activity inferred by Bayesian network models, PR-B expressing hMEC breast cell line (GSE24468); format: cell-based; conditions: PR-A, PR-B and PR-A&B models; 10 nM, 16h; versus control treated samples
Text: as §1, §2, §3

[3] = test system: PR-B cellular signaling pathway; test: PR-B pathway activity in paired pre/post letrozole treatment breast cancer samples (GSE10281); format: in vivo, human; conditions: ER positive breast cancer patients, 3 months neoadjuvant treatment
Text: as §1, §2, §3

[4] = test system: tumor growth in xenograft models; conditions: cited from earlier work

CC(=O)O[C@]1(C(C)=O)CC[C@H]2[C@@H]3C[C@H](C)C4=CC(=O)CC[C@]4(C)[C@H]3CC[C@@]21C [MPA, medroxyprogesterone acetate]
PR cellular signaling pathway activity levels (odds PR on:off) [1]: significantly higher

CCC(=O)[C@@]1(C)CC[C@H]2[C@@H]3CCC4=CC(=O)CCC4=C3CC[C@@]21C [R5020, promegestone]
PR cellular signaling pathway activity levels [2]: significantly higher

N#Cc1ccc(C(c2ccc(C#N)cc2)n2cncn2)cc1 [letrozole]
Normalized PR-B cellular signaling pathway activity levels, post vs. pre treatment ([3]; non-responders): remain similar to pre-treatment
Mean normalized PR-B cellular signaling pathway activity, post vs. pre treatment ([3]; responders): goes up

CC(=O)[C@H]1CC[C@H]2[C@@H]3CCC4=CC(=O)CC[C@]4(C)[C@H]3CC[C@]12C [progesterone, Progesterone]
Effect over tamoxifen regarding controlling tumor growth [4]: additive effect

From patent US20230071390A1, “ASSESSMENT OF PR CELLULAR SIGNALING PATHWAY ACTIVITY USING MATHEMATICAL MODELLING OF TARGET GENE EXPRESSION” (InnoSIGN B.V., priority 2019, published 2023)
